System: Weibliche Laborratten
Assay: Rat feeding test (Ratten-Fütterungsversuch, Beispiel A)
Format: in vivo, Laborratten vom Typ SPF Wistar
Conditions: 25 ppm in feed ad lib, 13-day test, 12 female rats per group; relative to control without active substance = 100
Source text: Weibliche Laborratten 90-110 g schwer vom Typ SPF Wistar (Züchtung Hagemann) werden ad lib mit Standard Rattenfutter, das mit der gewünschten Menge Wirkstoff versetzt ist, gefüttert. Jeder Versuchsansatz wird mit Futter der identischen Charge durchgeführt, so daß Unterschiede in der Zusammensetzung des Futters die Vergleichbarkeit der Ergebnisse nicht beeinträchtigen können.
Die Ratten erhalten Wasser ad lib.
Jeweils 12 Ratten bilden eine Versuchsgruppe und werden mit Futter, das mit der gewünschten Menge Wirkstoff versetzt ist, gefüttert. Eine Kontrollgruppe erhält Futter ohne Wirkstoff. Das durchschnittliche Körpergewicht sowie die Streuung in den Körpergewichten der Ratten ist in jeder Versuchsgruppe gleich, so daß eine Vergleichbarkeit der Versuchsgruppen untereinander gewährleistet ist.
Während des 13-tägigen Versuchs werden Gewichtszunahme und Futterverbrauch bestimmt.
Es werden die aus der Tabelle ersichtlichen Ergebnisse erhalten: […]

Row | Compound | Gewichtszunahme
1 | CCCCCc1cc(C(=O)OCC)c(NC(=O)Oc2ccccc2C)s1 [Bsp. 20] | 109
2 | CCCCCc1cc(C(=O)OCC)c(NC(=O)OC2CCCCC2)s1 [Bsp. 19] | 115
3 | CCOC(=O)c1c(NC(=O)OC)sc(C)c1CC [Bsp. 1, 2-Aminomethoxycarbonyl-3-carbethoxy-4-ethyl-5-methylthiophen] | 119
4 | CCOC(=O)c1cc(CC)sc1NC(=O)Oc1ccccc1 [Bsp. 56] | 116
5 | COC(=O)Nc1sc2c(c1C(=O)OC)CCCC2 [Bsp. 31] | 109
